Where a name gives a salt, the structure may show the parent alone.
The molecules below were run against T1, human HSD-1 (recombinant HSD-1) (Homo sapiens, UniProt P28845) (assay: HSD-1 activity inhibitory action in vitro (SPA, conversion of cortisone to cortisol)). Conditions: recombinant human HSD-1 expressed using baculovirus system; 10 nM 3H cortisone, 500 μM NADPH; room temperature 90 to 120 min; read-out: hHSD1 (IC50 (nM)).
T1 construct: made in house
Type: biochemical

T1 sequence (P28845 whole entry): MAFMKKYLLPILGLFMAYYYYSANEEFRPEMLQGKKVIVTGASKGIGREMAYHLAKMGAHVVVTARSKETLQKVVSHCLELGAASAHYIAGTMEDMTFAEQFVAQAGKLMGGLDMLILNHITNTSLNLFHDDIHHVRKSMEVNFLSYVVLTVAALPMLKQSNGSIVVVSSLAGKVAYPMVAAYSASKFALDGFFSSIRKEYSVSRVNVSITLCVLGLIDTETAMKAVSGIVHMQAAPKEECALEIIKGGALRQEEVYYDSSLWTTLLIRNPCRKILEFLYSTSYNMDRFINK

Row | SMILES | IC50 [nM]
1 | O=C(c1cnn(C2CCN(C3CC3)CC2)c1C1CC1)N1CC[C@@H](c2ccccc2C(F)(F)F)C1 [Example 99, 1-[5-cyclopropyl-1-(1-cyclopropylpiperidin-4-yl)-1H-pyrazole-4-carbonyl]-[(S)-3-(2-trifluoromethylphenyl)]pyrrolidine hydrochloride] | < 30
2 | O=C(c1cnn(C2CCN(C(=O)N3CC(F)(F)C(F)(F)C3)CC2)c1C1CC1)N1CC[C@@H](c2ccccc2C(F)(F)F)C1 [Example 48, 1-{5-cyclopropyl-1-[1-(3,3,4,4-tetrafluoropyrrolidine-1-carbonyl)piperidin-4-yl]-1H-pyrazole-4-carbonyl}-[(S)-3-(2-trifluoromethylphenyl)]pyrrolidine] | < 30
3 | CC(C)C(=O)NCC(=O)N1CCC(n2ncc(C(=O)N3CC[C@@H](c4ccccc4C(F)(F)F)C3)c2C2CC2)CC1 [Example 87, 1-{5-cyclopropyl-1-[1-(2-isobutyrylaminoacetyl)piperidin-4-yl]-1H-pyrazole-4-carbonyl}-[(S)-3-(2-trifluoromethylphenyl)]pyrrolidine] | < 30
4 | NC(=O)C1CN(C(=O)N2CCC(n3ncc(C(=O)N4CC[C@@H](c5ccccc5C(F)(F)F)C4)c3C3CC3)CC2)C1 [Example 34, 1-{1-[1-(3-carbamoylazetidine-1-carbonyl)piperidin-4-yl]-5-cyclopropyl-1H-pyrazole-4-carbonyl}-[(S)-3-(2-trifluoromethylphenyl)]pyrrolidine] | < 30
5 | CS(=O)(=O)NCC(=O)N1CCC(n2ncc(C(=O)N3CC[C@@H](c4ccccc4C(F)(F)F)C3)c2C2CC2)CC1 [Example 90, 1-{5-cyclopropyl-1-[1-(2-methanesulfonylaminoacetyl)piperidin-4-yl]-1H-pyrazole-4-carbonyl}-[(S)-3-(2-trifluoromethylphenyl)]pyrrolidine] | < 30
6 | NC1CCN(C(=O)N2CCC(n3ncc(C(=O)N4CC[C@@H](c5ccccc5C(F)(F)F)C4)c3C3CC3)CC2)CC1 [Example 35, 1-{1-[1-(4-aminopiperidine-1-carbonyl)piperidin-4-yl]-5-cyclopropyl-1H-pyrazole-4-carbonyl}-[(S)-3-(2-trifluoromethylphenyl)]pyrrolidine hydrochloride] | < 30
7 | CC(=O)NCCNC(=O)N1CCC(n2ncc(C(=O)N3CC[C@@H](c4ccccc4C(F)(F)F)C3)c2C2CC2)CC1 [Example 10, 1-{1-[1-(2-acetylaminoethylcarbamoyl)piperidin-4-yl]-5-cyclopropyl-1H-pyrazole-4-carbonyl}-[(S)-3-(2-trifluoromethylphenyl)]pyrrolidine] | < 30
8 | CC(C)(N)C(=O)N1CCC(n2ncc(C(=O)N3CC[C@@H](c4ccccc4C(F)(F)F)C3)c2C2CC2)CC1 [Example 79, 1-{1-[1-(2-amino-2-methylpropionyl)piperidin-4-yl]-5-cyclopropyl-1H-pyrazole-4-carbonyl}-[(S)-3-(2-trifluoromethylphenyl)]pyrrolidine hydrochloride] | < 30
9 | O=C(c1cnn(C2CCN(C(=O)N3CCC(O)CC3)CC2)c1C1CC1)N1CC[C@@H](c2ccccc2C(F)(F)F)C1 [Example 14, 1-{5-cyclopropyl-1-[1-(4-hydroxypiperidine-1-carbonyl)piperidin-4-yl]-1H-pyrazole-4-carbonyl}-[(S)-3-(2-trifluoromethylphenyl)]pyrrolidine] | < 30
10 | NCCC(=O)N1CCC(n2ncc(C(=O)N3CC[C@@H](c4ccccc4C(F)(F)F)C3)c2C2CC2)CC1 [Example 83, 1-{1-[1-(3-aminopropionyl)piperidin-4-yl]-5-cyclopropyl-1H-pyrazole-4-carbonyl}-[(S)-3-(2-trifluoromethylphenyl)]pyrrolidine hydrochloride] | < 30
11 | NCC(=O)N1CCC(n2ncc(C(=O)N3CC[C@@H](c4ccccc4C(F)(F)F)C3)c2C2CC2)CC1 [Example 77, 1-{1-[1-(2-aminoacetyl)piperidin-4-yl]-5-cyclopropyl-1H-pyrazole-4-carbonyl}-[(S)-3-(2-trifluoromethylphenyl)]pyrrolidine hydrochloride] | < 30
12 | O=C(c1cnn(C2CCN(C(=O)C3(CO)CC3)CC2)c1C1CC1)N1CC[C@@H](c2ccccc2C(F)(F)F)C1 [Example 78, 1-{5-cyclopropyl-1-[1-(1-hydroxymethylcyclopropanecarbonyl)piperidin-4-yl]-1H-pyrazole-4-carbonyl}-[(S)-3-(2-trifluoromethylphenyl)]pyrrolidine] | < 30
13 | CNCC(=O)N1CCC(n2ncc(C(=O)N3CC[C@@H](c4ccccc4C(F)(F)F)C3)c2C2CC2)CC1 [Example 85, 1-{5-cyclopropyl-1-[1-(2-methylaminoacetyl)piperidin-4-yl]-1H-pyrazole-4-carbonyl}-[(S)-3-(2-trifluoromethylphenyl)]pyrrolidine hydrochloride] | < 30
14 | CNC(=O)CN1CCC(n2ncc(C(=O)N3CC[C@@H](c4ccccc4C(F)(F)F)C3)c2C2CC2)CC1 [Example 95, 1-[5-cyclopropyl-1-(1-methylcarbamoylmethylpiperidin-4-yl)-1H-pyrazole-4-carbonyl]-[(S)-3-(2-trifluoromethylphenyl)]pyrrolidine hydrochloride] | < 30
15 | O=C(NCC(F)(F)F)N1CCC(n2ncc(C(=O)N3CC[C@@H](c4ccccc4C(F)(F)F)C3)c2C2CC2)CC1 [Example 47, 1-{5-cyclopropyl-1-[1-(2,2,2-trifluoroethylcarbamoyl)piperidin-4-yl]-1H-pyrazole-4-carbonyl}-[(S)-3-(2-trifluoromethylphenyl)]pyrrolidine] | < 30
16 | O=C(OC1CCNCC1)N1CCC(n2ncc(C(=O)N3CC[C@@H](c4ccccc4C(F)(F)F)C3)c2C2CC2)CC1 [Example 61, 1-{5-cyclopropyl-1-[1-(piperidin-4-yl-oxycarbonyl)piperidin-4-yl]-1H-pyrazole-4-carbonyl}-[(S)-3-(2-trifluoromethylphenyl)]pyrrolidine hydrochloride] | < 30
17 | O=C(NC1CCNCC1)N1CCC(n2ncc(C(=O)N3CC[C@@H](c4ccccc4C(F)(F)F)C3)c2C2CC2)CC1 [Example 37, 1-{5-cyclopropyl-1-[1-(piperidin-4-yl-carbamoyl)piperidin-4-yl]-1H-pyrazole-4-carbonyl}-[(S)-3-(2-trifluoromethylphenyl)]pyrrolidine hydrochloride] | < 30
18 | CN(C)CC(=O)N1CCC(n2ncc(C(=O)N3CC[C@@H](c4ccccc4C(F)(F)F)C3)c2C2CC2)CC1 [Example 67, 1-{5-cyclopropyl-1-[1-(2-dimethylaminoacetyl)piperidin-4-yl]-1H-pyrazole-4-carbonyl}-[(S)-3-(2-trifluoromethylphenyl)]pyrrolidine hydrochloride] | < 30

The remaining lines, values ahead:

Row | IC50 [nM] | SMILES
19 | < 30 | O=C(Nc1nccs1)N1CCC(n2ncc(C(=O)N3CCC(c4ccccc4C(F)(F)F)C3)c2C2CC2)CC1 (stereo not shown) [Example 145, 1-{5-cyclopropyl-1-[1-(thiazol-2-ylcarbamoyl)piperidin-4-yl]-1H-pyrazole-4-carbonyl}-3-(2-trifluoromethylphenyl)pyrrolidine]
20 | < 30 | NC(=O)c1ccc(N2CCC(n3ncc(C(=O)N4CCC(c5ccccc5C(F)(F)F)C4)c3C3CC3)CC2)nc1 (stereo not shown) [Example 167, 1-{1-[1-(5-carbamoyl-pyridin-2-yl)piperidin-4-yl]-5-cyclopropyl-1H-pyrazole-4-carbonyl}-3-(2-trifluoromethylphenyl)pyrrolidine]
21 | < 30 | Cc1nc(N2CCC(n3ncc(C(=O)N4CC[C@@H](c5ccccc5C(F)(F)F)C4)c3C3CC3)CC2)n[nH]1 [Example 117, 1-{5-cyclopropyl-1-[1-(5-methyl-4H-[1,2,4]triazol-3-yl)piperidin-4-yl]-1H-pyrazole-4-carbonyl}-[(S)-3-(2-trifluoromethylphenyl)]pyrrolidine hydrochloride]
22 | < 30 | CCONC(=O)N1CCC(n2ncc(C(=O)N3CCC(c4ccccc4C(F)(F)F)C3)c2C2(C)CC2)CC1 (stereo not shown) [Example 172, 1-[1-(1-ethoxycarbamoylpiperidin-4-yl)-5-(1-methylcyclopropyl)-1H-pyrazole-4-carbonyl]-3-(2-trifluoromethylphenyl)pyrrolidine]
23 | < 30 | NC(=O)N[C@H]1CC[C@H](n2ncc(C(=O)N3CC[C@@H](c4ccccc4C(F)(F)F)C3)c2C2CC2)CC1 [Example 131, 1-[5-cyclopropyl-1-(trans-4-ureidocyclohexyl)-1H-pyrazole-4-carbonyl]-[(S)-3-(2-trifluoromethylphenyl)]pyrrolidine]
24 | < 30 | O=C(c1cnn(C2CCN(S(=O)(=O)C(F)(F)F)CC2)c1C1CC1)N1CC[C@@H](c2ccccc2C(F)(F)F)C1 [Example 108, 1-[5-cyclopropyl-1-(1-trifluoromethanesulfonylpiperidin-4-yl)-1H-pyrazole-4-carbonyl]-[(S)-3-(2-trifluoromethylphenyl)]pyrrolidine]
25 | < 30 | O=C(c1cccc(Cl)c1)N1CCC(n2ncc(C(=O)N3CCC(c4cccnc4)C3)c2C2CC2)CC1 (stereo not shown) [Example 156, 1-{1-[1-(3-chlorobenzoyl)piperidin-4-yl]-5-cyclopropyl-1H-pyrazole-4-carbonyl}-3-(pyridin-3-yl)pyrrolidine]
26 | < 30 | O=C(NCc1ccc(F)cc1)N1CCC(n2ncc(C(=O)N3CCC(c4ccccc4C(F)(F)F)C3)c2C2CC2)CC1 (stereo not shown) [Example 147, 1-{5-cyclopropyl-1-[1-(4-fluorobenzylcarbamoyl)piperidin-4-yl]-1H-pyrazole-4-carbonyl}-3-(2-trifluoromethylphenyl)pyrrolidine]
27 | < 30 | CS(=O)(=O)Nc1ccc(N2CCC(n3ncc(C(=O)N4CCC(c5ccccc5C(F)(F)F)C4)c3C3CC3)CC2)cc1 (stereo not shown) [Example 171, 1-{5-cyclopropyl-1-[1-(4-methanesulfonylaminophenyl)piperidin-4-yl]-1H-pyrazole-4-carbonyl}-3-(2-trifluoromethylphenyl)pyrrolidine]
28 | < 30 | CC1(c2c(C(=O)N3CCC(c4ccccc4C(F)(F)F)C3)cnn2[C@H]2CC[C@H](C(=O)Nc3ccccc3F)CC2)CC1 (stereo partly drawn) [Example 190, 1-{5-(1-methylcyclopropyl)-1-[trans-4-(2-fluorophenylcarbamoyl)cyclohexyl]-1H-pyrazole-4-carbonyl}-3-(2-trifluoromethylphenyl)pyrrolidine]
